From PMC4586518, “Melanin production through novel processing of proopiomelanocortin in the extracellular compartment of the auricular skin of C57BL/6 mice after UV-irradiation” (Scientific Reports, 2015)
“Also recorded” adds a separate entry of the source. No end group written: not given here.

Assays:
MC-1R [1] = molecular target: T1, MC-1R (Mus musculus, UniProt Q01727); assay: Inhibition of α-MSH- or ACTH(1–8)-induced melanin production in B16 cells by MC-1R antagonist; assay type: cell-based; settings: dose-dependent effect of antagonist, n = 4
T1 construct: Mouse melanoma cell line B16[43], which express MC-1R and produce melanin; host or cells: B16 mouse melanoma cells (adherent, whole cells)
T1 sequence (Q01727 whole entry): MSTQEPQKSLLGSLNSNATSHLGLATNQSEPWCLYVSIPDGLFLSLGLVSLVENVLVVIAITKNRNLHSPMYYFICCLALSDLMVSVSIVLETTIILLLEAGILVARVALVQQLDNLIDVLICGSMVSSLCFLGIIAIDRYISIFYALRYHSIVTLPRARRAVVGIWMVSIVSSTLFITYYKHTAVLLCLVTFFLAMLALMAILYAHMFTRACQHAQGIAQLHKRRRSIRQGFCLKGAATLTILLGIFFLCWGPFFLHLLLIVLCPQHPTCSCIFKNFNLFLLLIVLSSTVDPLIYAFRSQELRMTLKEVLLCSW
Experimental: Figure 3 ACTH(1–8)-mediated melanin production via the MC-1R. (A). The Radioreceptor assay of ACTH(1–8) (open circle) and α-MSH (closed circle) in mouse melanoma B16 cells. B16 mouse melanoma cells were incubated with [^125I]-α-MSH and 10^−7–10^−11 M ACTH(1–8) or 10^−6–10^−11 M α-MSH. The receptor binding of [^125I]-α-MSH was expressed as 100% in the absence of α-MSH and 0% in the presence of 1 μM α-MSH and calculated as relative activity. (B). ACTH(1–8)- and α-MSH-mediated melanin production. B16 mouse melanoma cells were incubated with 10^−7–10^−11 M ACTH(1–8) (open circle) or 10^−6–10^−11 M α-MSH (closed circle). Melanin levels are expressed as 100% and 0% in the presence of 1 μM α-MSH and absence of α-MSH, respectively, and calculated as the relative activity. C. […] Melanin levels are expressed as 100% and 0% in the presence of 1 μM α-MSH and absence of α-MSH, respectively, and calculated as the relative activity.
Melanin production activity was performed as follows: B16 cells and normal human melanocytes (TOYOBO. Osaka, Japan) were seeded at the density of 1 × 10[5] cells in 24-well plates and allowed to attach overnight. […] Cells were solubilized in 1 M NaOH at 60°C, and melanin content was measured spectrophotometrically at 475 nm. Melanin levels were expressed as 100% and 0% in the presence of 1 μM α-MSH and absence of α-MSH, respectively. […]

lizard skin = system: lizard skin; set-up: method as in PMID 2537778; settings: cited from earlier work
melanin production = settings: bioassay studies on melanin production; cited from earlier work
frog skin = system: frog skin; set-up: method as in PMID 2822931; settings: cited from earlier work
mouse melanoma B16 cells = settings: 72 h
Experimental: (B). […] C. […] Each point and line represents the mean ± SEM (n = 4).
Melanin production activity was performed as follows: B16 cells and normal human melanocytes (TOYOBO. Osaka, Japan) were seeded at the density of 1 × 10[5] cells in 24-well plates and allowed to attach overnight. […] Cells were solubilized in 1 M NaOH at 60°C, and melanin content was measured spectrophotometrically at 475 nm.

MC-1R [2] = system: MC-1R; set-up: method as in 2 sources, ref 23 = [23]; PMID 17317724; doi:10.1096/fj.06-7398com; Rousseau K. et al. Proopiomelanocortin (POMC), the ACTH/melanocortin precursor, is secreted by human epidermal keratinocytes and melanocytes and stimulates melanogenesis . FASEB J 21 , 1844 – 1856 ( 2 ||| ref 34 = [34]; PMID 1556905; doi:10.1016/0024-3205(92)90347-r; Slominski. A. et al. Melanotropic activity of gamma MSH peptides in melanoma cells . Life Sci , 50 , 1103 – 1108 ( 1992 ). 1556905 10.1016/0024-3205(92)90347-r; settings: cited from earlier work
Text: To clarify the mechanism of melanin production after UV-irradiation, we assessed the expression of POMC and POMC-derived peptides after UV-irradiation to the skin of the murine auricle.

MC-1R [3] = settings: cited from earlier work
Text: Melanin plays an important role in protecting skin after UV-irradiation. α-MSH is a major catalyst for melanogenesis in the skin following UV-irradiation. α-MSH-LI and ACTH-LI may be present in culture media of normal keratinocytes, fibroblasts, melanocytes, and their cell extracts. Although POMC and POMC-derived peptides such as ACTH and α-MSH are released from the intermedia of the pituitary, it is unlikely that pituitary secretions contribute to local pigmentation. In the present report, POMC-related peptides were detected in the UV-irradiated auricle ... || Structure-activity analyses of α-MSH have reported information on the essential sequence required for MC-1R binding and melanin production. […] However, Ac-His-Phe-Arg-Trp-NH2 had 400,000-fold less activity (EC50 20 μM) than α-MSH in a frog skin bioassay[31] and approximately 7,000-fold less activity (EC50 1 μM) in a lizard skin bioassay. Furthermore, the N-terminal region of α-MSH is ...

ASP(87–132)-NH2: a MC-1R antagonist (TPLSAPCVATRNSCKPPAPACCDPCASCQCRFFRSACSCRVLSLNC-NH2; cysteine pairing not given here; UniProt P42127 87-132, looked up, fragment)
effect on ACTH(1–8)-mediated melanin production (MC-1R [1]; 10^−7 M ACTH(1–8)): competitively attenuated; also recorded: decreased both ACTH(1–8)- and α-MSH-mediated melanogenesis
effect on α-MSH-mediated melanin production (MC-1R [1]; 10^−8 M α-MSH): decreased both ACTH(1–8)- and α-MSH-mediated melanogenesis

Ac-His-Phe-Arg-Trp-NH2
EC50 (lizard skin; lizard skin, read-out: EC50, lizard skin bioassay): 1000 nM
fold less activity than α-MSH, lizard skin bioassay (lizard skin; relative to α-MSH): approximately 7,000 fold
melanotropic response (melanin production): minimal synthetic fragment capable of eliciting a melanotropic response
EC50 (frog skin; frog skin, read-out: EC50, frog skin bioassay): 20000 nM
fold less activity than α-MSH, frog skin bioassay (frog skin; relative to α-MSH): 400,000 fold

SYSMEHFR [ACTH(1–8)]
EC50 (mouse melanoma B16 cells): 80 nM

adrenocorticotropic hormone (SYSMEHFRWGKPVGKKRRPVKVYPNGAEDESAEAFPLEF; Corticotropin; UniProt P01189 138-176, looked up) [ACTH, intermediate form of α-MSH, produced from POMC; 4.5 kDa]
agonism at MC-1R (MC-1R [2]; MC1-R): known agonists

γ-MSH
antagonism against MC-1R (MC-1R [2]): competitive antagonist against MC-1R
potency when binding to MC-1R (MC-1R [2]; compared with ACTH(1–8)): potent when binding to MC-1R, but at low potency levels similar to ACTH(1–8)
melanin production (MC-1R [3]): increases melanin production
